# Results as given in patent publication US11485891B2, “Products and methods for the treatment of mixtures of water and hydrophobic liquids” (B.C. RESEARCH INC., priority 2018, dated 2022).
# What was measured:
# [1] = Herder activity: slick thickness of oil added to water pre-dosed with herder
# Experimental: The herder formulation was pre-dosed into 1 L of water in a flat glass pan under which was a 1×1 cm grid. A known volume of oil was applied to the pre-dosed water. A digital photo of the oil slick was recorded. The image was processed using ImageJ in order to calculate the area of the slick. Since volume and area are known, it is possible to calculate the thickness of the slick as a function of herder dosing. Compounds that maximize the thickness of the slick are considered better oil-herders.
# Stearoyl alanine was dissolved in isopropyl alcohol. An aliquot of this solution was added to 1 L of water in a pan. The final dosage of stearoyl alanine was 0.77 mg in 1 L of water. Dilbit (2.27 g) was added. An overhead digital photo was taken of the oil after 10 minutes. The photo was analyzed to determine the area of the oil which could be used to calculate the thickness of the oil layer. The oil slick was determined to be 2.9 mm thick.
# Silsurf, (trademark) a commercial herder added to 1 L of water in a glass pan for a final dosing of 1 mg. Dilbit (1.61 g) was added to the water. An overhead digital photo was taken of the oil after 10 minutes. The photo was analyzed to determine the area of the oil which could be used to calculate the thickness of the oil layer. The oil slick was determined to be 2.0 mm thick.
# [2] = Gelling activity using mixed organic solvent-water active suspension; settings: 25 mg in 5 mL 2:3 1,4-butanediol and water, heated and cooled; added to 1:4 oil and seawater, gentle agitation
# Experimental: The gellant oleic-p-alaninamide (25 mg) was suspended in 5 mL of a mixed solvent system composed of 2:3 1,4-butanediol and water. The mixture was heated to dissolve the solids. Upon cooling, the gellant precipitates as a cotton-like mass.
# [3] = Gelling activity without organic solvent (active suspension in water); settings: 25 mg in 5 mL water, heated and cooled; no organic solvent
# Experimental: The gellant oleic-β-alaninamide (25 mg) was suspended 5 mL of water which was dyed pink for visualization purposes. The mixture was heated to dissolve the gellant. Upon cooling, the gellant precipitated as a cotton-like mass which retains the water. […] Upon the addition of diesel, which has been dyed blue, the hydrophobic phase entered the gellant mass upon contact and displaced the dyed water (FIGS. 8B and 8C) to produce the gelled diesel.
# [4] = Experimental: The herder L-phenylalanine, N-(1-oxotetradecyl)-, sodium salt and the gellant oleic-β-alaninamide were assessed for biodegradability in using OECD 301F guideline, manometric respirometer test.
# [5] = Gelling ability, solution phase (co-solvent) delivery to dilbit-water mixture
# Experimental: PSOGs were screened against dilbit, diesel and sunflower. The dilbit used in the Examples herein was prepared by dissolving bitumen in naphtha in a 65:35 ratio of bitumen to naphtha. A typical screening method utilized a 1:4 ratio of hydrophobic liquid to water (i.e., 1 mL oil product to 4 mL water) in a 20 mL vial. The gellant (22.5 mg) was dissolved in a carrier solvent, which was typically methanol, ethanol or isopropanol. Heat was applied to dissolve the solid if necessary. The gellant solution was transferred to the oil-water mixture and the vial was capped. Agitation was applied and the mixture allowed to settle. Gel formation typically presented as the formation of an oil pellet or a thickening of the oil phase.
# Four portions of the prior art compound dodecanoyl-L-alanine of differing masses were weighed out and each dissolved in 1 mL of isopropyl alcohol. These four solutions were added to four separate 20 mL vials of 1:4 mL dilbit and water. […] Gel formation was evaluated qualitatively.
# This procedure was repeated with dodecanoyl-β-alaninamide. Four portions of dodecanoyl-β-alaninamide of differing masses were weighed out and each dissolved in 1 mL of isopropyl alcohol. These four solutions were added to four separate 20 mL vials containing 1 mL dilbit and 4 mL water. […] Gel formation was evaluated qualitatively.
# [6] = Oil thickening, aqueous suspension delivery to dilbit-water mixture
# Experimental: Gellants which presented as fine powdery solids were suspended in water (4-5 mL). The suspension was sonicated to reduce the particle size if necessary. The suspension was added to a mixture of 1 mL oil to 4 mL water in a 20 mL vial. The vial was capped and the mixture agitated. Thickening of the oil, likely due to the formation of an emulsion, could be observed within 15 minutes.
# Four portions of prior art compound dodecanoyl-L-alanine of differing masses were weighed out and each suspended in 1 mL of water. These four suspensions were added to four separate 20 mL vials of 1:4 mL dilbit and water. […] Oil thickening was evaluated qualitatively.
# This experiment was repeated with dodecanoyl-β-alaninamide. Four portions of dodecanoyl-β-alaninamide of differing masses were weighed out and each suspended in 7 mL of water. These four suspensions were added to four separate 20 mL vials of 1:4 mL dilbit and water. […] Oil thickening was evaluated qualitatively.
# [7] = Bhattacharya et al., Chemical Communications p. 185, 2001; cited from earlier work
# [8] = Herding (slick retraction) of oil already spread on water; settings: aqueous solution of herder applied to spread oil; images at 1, 5, 10 and 20 minutes
# Source text: When an oil (e.g., dilbit) is applied to water in a pan, the oil spreads to cover the surface of the water. Application of FA-AA as a salt (e.g., Li, Na or K salts) dissolved in water results in contraction of the oil layer. The pooled oil has reduced surface area and greater slick thickness. This is illustrated in FIG. 9A-E where a solution of the salt of a FA-AA is applied to an aliquot of oil which has been allowed to spread in a pan (FIG. 9A). Application of the aqueous herder solution results in contraction of the slick over time. Images taken at 1, 5, 10 and 20 minutes are shown in FIGS. 9B, 9C, 9D and 9E respectively.
# Alternatively, an oil was applied to water in a pan and allowed to spread. A herder (e.g. L-phenylalanine, N-(1-oxotetradecyl)-, sodium salt) was applied to the water to retract the slick (i.e. decrease surface area while increasing the thickness/depth of the oil layer). Overhead photography was used to capture the herding process. The images were processed to determine the area of the slick and allow for calculation of the slick thickness (FIG. 9).
# [9] = Reduction of oil adhesion on glass beads conditioned with aqueous herder solution; settings: beads conditioned 1 hour, in oil 1 hour
# Experimental: Glass bead were used as a model substrate. The beads were weighed and transferred into a pre-weighed 60 mL plastic syringe. The beads were immersed in an aqueous solution of herder, C14-L-Phe-COONa, for 1 hour. An oil layer of conventional crude oil was added to the surface of the herder solution above the glass beads. The oil was lowered hydrostatically to immerse the beads in oil for 1 hour after which the oil was raised hydrostatically above the level of the beads. The water above the oil and beads were both removed. The mass of the oil retained on the glass beads was calculated as the difference between the mass of the oil-coated beads and the initial mass of the beads.
compound,measurement,setting,value
CCCCCCCCCCCCCCCCCC(=O)N[C@@H](C)C(=O)O [Stearoyl alanine],Oil slick thickness,"[1]; 0.77 mg in 1 L of water (from isopropyl alcohol solution), dilbit 2.27 g, photo after 10 minutes",2.9 mm
CCCCCCCC/C=C\CCCCCCCC(=O)NCCC(N)=O [oleic-β-alaninamide],Time to gelling of the oil phase,[2],less than 1 minute
same,Gelling of dyed diesel (FIG. 8),[3],gelled diesel
same,Biodegradability classification,[4],inherently biodegradable
"CCCCCCCCCCCC(=O)N[C@@H](C)C(=O)O [dodecanoyl-L-alanine, reference compound]",Dosing ratio at which a gel formed (qualitative evaluation),"[5]; gellant in 1 mL isopropyl alcohol, 1 mL dilbit and 4 mL water, tested at 2.5, 1.25, 0.83 and 0.63% w/v relative to dilbit",2.5 % w/v
same,Dosing level at which the oil thickened (qualitative evaluation),"[6]; solid suspended in water, 1:4 mL dilbit and water, tested at 2.5, 1.25, 0.83 and 0.63% w/v relative to dilbit",did not thicken the oil at any of the dosing levels tested
same,Gelling ability,[7],gel various hydrophobic organic liquids including petrol
CCCCCCCCCCCCCC(=O)N[C@@H](C)C(=O)[O-].[Na+] [sodium tetradecanoylalaninate],Behaviour of oil added to a pan of water pre-dosed with herder (FIG. 2),[1]; FA-AA salt pre-dosed into water,contraction of the oil slick
oleic alaninamide,State of dilbit after PSOG delivered as solution in a water-miscible solvent (FIG. 3),[5]; dilbit and water,gel pellet
same,State of dilbit after PSOG suspended in water (FIG. 3),[6]; dilbit and water,thickened state
"CCCCCCCCCCCCCC(=O)N[C@@H](Cc1ccccc1)C(=O)[O-].[Na+] [L-phenylalanine, N-(1-oxotetradecyl)-, sodium salt]",Herding of dilbit (FIG. 9),[8],slick retraction
same,Biodegradability classification,[4],readily biodegradable
same,Average mass of conventional crude retained,[9]; herder concentration 0.086 g/L,1.9 g
same,Average mass of conventional crude retained,[9]; herder concentration 0.57 g/L,1.3 g
same,Average mass of conventional crude retained,[9]; herder concentration 2.9 g/L,1.6 g
same,Average mass of conventional crude retained,[9]; herder concentration 10 g/L,1.8 g
